From patent US20090054971A1, “DRUG ELUTING STENT SYSTEM AND MANUFACTURING PROCESS OF DRUG ELUTING STENT SYSTEM” (TERUMO KABUSHIKI KAISHA, priority 2005, published 2009)

Test: Storage stability of the rapamycin derivative (bulk, in glass bottle), percent residual by HPLC
Type: physicochemical
Procedure: A biologically/physiologically active substance and a deoxidant were placed and sealed within a package. After stored at 40° C. for four weeks, the remaining amount of the biologically/physiologically active substance was measured by high speed liquid chromatography (HPLC) to determine its percent residue.
Biologically/physiologically active substance: A rapamycin derivative represented by the following chemical formula (I) (product of Nippon Kayaku Co., Ltd.). An aliquot (0.03 g) of the rapamycin derivative was placed in a glass bottle, and further, the glass bottle was placed within the below-described package.
Deoxidant: “ZH-100” (product of Mitsubishi Gas Chemical Co, Inc.). Two bags, the volume of each bag being sufficient for 100 mL, were placed and sealed within the package.
Package: An aluminum pouch in the form of a bag of a size of 300 mm in length, 300 mm in width and 0.1 mm in thickness, which was formed of a stacked structure of polyethylene terephthalate, low-density polyethylene, an aluminum film, low-density polyethylene and high-density polyethylene as materials.
After stored in the above-described state at 40° C. for four weeks, the biologically/physiologically active substance was taken out of the package and was provided as “Sample A1” for HPLC. […]
By the following equation, the percent residual of the rapamycin derivative in Sample A1 was determined. […]

| Compound | Percent residual (%) (stored in air at 40° C. for four weeks) | Percent residual (%) (sealed with deoxidant ZH-100 in aluminum pouch, stored at 40° C. for four weeks) |
| --- | --- | --- |
| CCOCCOC1CCC(CC(C)C2CC(=O)C(C)C(O)C(C)C(O)C(OC)C(=O)C(C)CC(C)/C=C/C=C/C=C(\C)C(OC)CC3CCC(C)C(O)(O3)C(O)C(=O)N3CCCCC3C(=O)O2)CC1OC (centres unmarked) [Comparative Example 1] | 18.2 |  |
| CCOCCOC1CCC(CC(C)C2CC(=O)C(C)C(O)C(C)C(O)C(OC)C(=O)C(C)CC(C)/C=C/C=C/C=C(\C)C(OC)CC3CCC(C)C(O)(O3)C(O)C(=O)N3CCCCC3C(=O)O2)CC1OC (centres unmarked) [Example 1] |  | 97.3 |
